According to patent US5756301A, “Endogenous taxol-like substance in human serum, monoclonal antibodies directed thereto and methods of assaying therefor” (The Trustees of Columbia University in the City of New York, priority 1993, dated 1998):
“Also recorded” adds a separate entry of the source. Where two headings read alike, the source gives them in different places.

Legend:
microtubules / tubulin = conditions: cited from earlier work
69E4A8E = assay: Competitive ELISA, inhibition of binding of 69E4A8E to taxol-RSA; set-up: species or system mouse
Description: (§1) Spleen cells were fused with nonsecreting myeloma cells P3 ×63-Ag8.653 (13), according to the method of Sharon et al. (14). […] Clones positive by competitive ELISA were subcloned twice by limiting dilution. Ascites were obtained by injecting 10^6 to 10^7 cells i.p. into BALB/c mice that had been primed with IFA i.p. 5 days before.
(§2) The wells were washed with PBS-T-20 three times and blocked with 200 ul of PBS, containing 1% fetal calf serum, for 1 hour at 37° C. […] After washing four times with PBS-T-20, bound antibodies were detected with 100 ul of 1/3000 dilution of peroxidase-labeled goat anti-mouse IgG+IgM in PBS-T-20 for 1 hour at 37° C. Color was developed and absorbance was measured as described above.

29B7B3C = assay: Competitive ELISA, inhibition of binding of 29B7B3C to taxol-RSA; set-up: species or system mouse
Description: as §1, §2

KB cells = conditions: cited from earlier work
[1] = clinical trials; cited from earlier work
[2] = test system: rabbit anti-taxol antiserum; assay: RIA: inhibition of binding of rabbit anti-taxol antiserum to [3H]taxol; conditions: for Affinity of rabbit antibodies (in words): [3H]taxol
Description: (§3) Bound ligand was separated from free by the addition of 100 ul of a 2.5% dextran-coated charcoal solution in RIA buffer, incubation for 3 min at 4° C. and centrifugation in an Eppendorf centrifuge for 2 min.

[3] = test system: ovarian and breast cancer and melanoma; conditions: clinical trials; cited from earlier work
[4] = read-out: Peak taxol level in plasma; 200 to 250 mg/m^2 infusion over 24 hours; cited from earlier work
[5] = test system: antibodies specific for taxol (one rabbit antiserum and two monoclonal antibodies); assay: Binding to all of the antibodies (rabbit antiserum, 69E4A8E, 29B7B3C); set-up: species or system rabbit; mouse; conditions: 69E4A8E and 29B7B3C
Description: as §2, with “Polystyrene microplates were coated with 100 ul of taxol-RSA (250ng/ml) in 0.1 M sodium bicarbonate, pH=9.3, overnight at 4° C. The” for “The”
as §3

tumor = conditions: cited from earlier work
[6] = relative to taxol = 1, data from reference 10

COc1cc([C@@H]2c3cc4c(cc3[C@H](O)[C@H]3COC(=O)[C@H]23)OCO4)cc(OC)c1OC [podophyllotoxin]
Effect on microtubule assembly / tubulin polymerization (microtubules / tubulin): inhibit tubulin polymerization

CC(=O)O[C@H]1C(=O)[C@]2(C)[C@H](O)C[C@H]3OC[C@@]3(OC(C)=O)[C@H]2[C@H](OC(=O)c2ccccc2)[C@]2(O)C[C@H](OC(=O)[C@H](O)[C@@H](NC(=O)c3ccccc3)c3ccccc3)C(C)=C1C2(C)C [7-Epitaxol, 7-epitaxol]
Binding affinity / recognition by 69E4A8E (in words) (69E4A8E; competitive ELISA): higher binding affinities
Binding affinity of 29B7B3C (in words) (29B7B3C; competitive ELISA): higher binding affinities

CC(=O)O[C@@]12CO[C@@H]1C[C@H](O)[C@@]1(C)C(=O)[C@H](O)C3=C(C)[C@@H](O)C[C@@](O)([C@@H](OC(=O)c4ccccc4)[C@H]21)C3(C)C [10-deacetylbaccatin III]
Relative IC50, cytotoxicity (KB cells) (KB cells; human): 400

CC(=O)O[C@H]1C(=O)[C@@]2(C)[C@H]([C@H](OC(=O)c3ccccc3)[C@]3(O)C[C@H](OC(=O)[C@H](O)[C@@H](NC(=O)c4ccccc4)c4ccccc4)C(C)=C1C3(C)C)[C@]1(OC(C)=O)CO[C@@H]1C[C@@H]2O [Taxol]
Side effects [1]: neutropenia, hypersensitivity reactions mucositis, neurological and possible cardiac toxicity
Affinity of rabbit antibodies (in words) ([2]; RIA): almost equal affinity
Binding affinity / recognition by 69E4A8E (in words) (69E4A8E): higher binding affinities
IC50 (69E4A8E; ELISA, 69E4A8E): ~100 nM
Clinical efficacy [3]: affective in the treatment of ovarian (5, 6) and breast cancer (7) and melanoma (8)
Cmax [4]: > 600 nM
Binding by all antibodies (in words) [5]: bind taxol and active derivatives well
Binding affinity of 29B7B3C (in words) (29B7B3C): higher binding affinities
IC50 (29B7B3C; ELISA, 29B7B3C): ~100 nM
Antitumor activity (tumor): shown to have antitumor activity
Effect on microtubule assembly / tubulin polymerization (microtubules / tubulin): promote and stabilize microtubule assembly and inhibit disassembly to tubulin

CC(=O)OC[C@@]1(O)[C@H]2[C@H](OC(=O)c3ccccc3)[C@]3(O)C[C@H](OC(=O)[C@H](O)[C@@H](NC(=O)c4ccccc4)c4ccccc4)C(C)=C([C@@H](OC(C)=O)C(=O)[C@]2(C)[C@@H](O)C[C@@H]1O)C3(C)C [20-acetoxy-4-deacetyl-5-epi-20,0-secotaxol]
Affinity lower than taxol (orders of magnitude) ([2]; RIA, lower than taxol): about 3 orders of magnitude
Relative IC50, cytotoxicity (KB cells) (KB cells; [6]): > 100,000

CC[Si](CC)(CC)O[C@@H](C(=O)O[C@H]1C[C@@]2(O)[C@@H](OC(=O)c3ccccc3)[C@@H]3[C@]4(OC(C)=O)CO[C@@H]4C[C@H](O)[C@@]3(C)C(=O)[C@H](OC(C)=O)C(=C1C)C2(C)C)[C@@H](NC(=O)c1ccccc1)c1ccccc1 [2'-(Triethylsiyl) taxol, 2'-(triethylsilyl)taxol]
Relative IC50, cytotoxicity (KB cells) (KB cells; human): 30,000

CC(=O)O[C@H]1C(=O)[C@@]2(C)[C@H]([C@H](OC(=O)c3ccccc3)[C@]3(O)C[C@H](O)C(C)=C1C3(C)C)[C@]1(OC(C)=O)CO[C@@H]1C[C@@H]2O [Baccatin III, baccatin III]
Affinity lower than taxol (orders of magnitude) [2]: about 3 orders of magnitude
Relative IC50, cytotoxicity (KB cells) (KB cells; human): 1,700

CC(=O)O[C@@]12CO[C@@H]1C[C@H](O)[C@@]1(C)C(=O)[C@H](O)C3=C(C)[C@@H](OC(=O)[C@H](O)[C@@H](NC(=O)OC(C)(C)C)c4ccccc4)C[C@@](O)([C@@H](OC(=O)c4ccccc4)[C@H]21)C3(C)C [Taxotere]
Affinity of rabbit antibodies (in words) ([2]; RIA): inability of the rabbit serum and 69E4A8E to recognize taxotere
Affinity lower than taxol (fold) ([2]; RIA, lower affinity than taxol): 100 fold
Binding affinity / recognition by 69E4A8E (in words) (69E4A8E; competitive ELISA): recognized poorly; also recorded: inability of the rabbit serum and 69E4A8E to recognize taxotere
Binding affinity of 29B7B3C (in words) (29B7B3C; competitive ELISA): binds taxotere as well as it does taxol

C/C=C(\C)C(=O)N[C@@H](c1ccccc1)[C@@H](O)C(=O)O[C@H]1C[C@@]2(O)[C@@H](OC(=O)c3ccccc3)[C@@H]3[C@]4(OC(C)=O)CO[C@@H]4C[C@H](O)[C@@]3(C)C(=O)[C@H](OC(C)=O)C(=C1C)C2(C)C [Cephalomannine, cephalomannine]
Affinity of rabbit antibodies (in words) ([2]; RIA): almost equal affinity
Relative IC50, cytotoxicity (KB cells) (KB cells; [6]): 3.2
Binding affinity of 29B7B3C (in words) (29B7B3C; competitive ELISA): higher binding affinities

CC[C@]1(O)C[C@@H]2CN(CCc3c([nH]c4ccccc34)[C@@](C(=O)OC)(c3cc4c(cc3OC)N(C)[C@H]3[C@@](O)(C(=O)OC)[C@H](OC(C)=O)[C@]5(CC)C=CCN6CC[C@]43[C@@H]65)C2)C1 [vinblastine]
Effect on microtubule assembly / tubulin polymerization (microtubules / tubulin): inhibit tubulin polymerization
